# Measurements from US9828369B2, “Isoquinoline derivatives useful as inhibitors of diacylglyceride O-acyltransferase 2” (Merck Sharp & Dohme Corp., priority 2014, dated 2017).
# Target: hDGAT2 (Homo sapiens (Human), UniProt Q96PD7)
# Test: DGAT2 enzymatic activity assay (triolein formation, LC/MS/MS)
# Conditions: not given
# Chain of hDGAT2 (Q96PD7 whole entry): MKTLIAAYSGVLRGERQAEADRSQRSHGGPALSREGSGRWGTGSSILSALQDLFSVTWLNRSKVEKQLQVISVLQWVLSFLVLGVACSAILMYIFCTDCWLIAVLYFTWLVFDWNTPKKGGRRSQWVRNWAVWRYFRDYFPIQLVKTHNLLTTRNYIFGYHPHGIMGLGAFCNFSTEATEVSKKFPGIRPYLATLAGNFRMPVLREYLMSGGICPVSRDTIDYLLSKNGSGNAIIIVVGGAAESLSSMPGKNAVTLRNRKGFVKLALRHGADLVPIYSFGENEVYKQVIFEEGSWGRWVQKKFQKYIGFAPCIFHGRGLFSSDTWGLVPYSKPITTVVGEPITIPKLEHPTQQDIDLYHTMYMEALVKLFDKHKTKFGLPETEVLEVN
row,SMILES,IC50 [µM]
1,"COc1cccc(-c2ccc(CNC(=O)[C@@H]3COC(c4ccccc4)=N3)c3cnccc23)c1 (racemic) [Example 42, (R/S)-N-((5-(3-methoxyphenyl)isoquinolin-8-yl)methyl)-2-phenyl-4,5-dihydrooxazole-4-carboxamide]",3.55
2,"CC[C@H](C(=O)NCc1ccc(-c2cccc(OC)c2)c2ccncc12)c1ccc(C(F)(F)F)c(F)c1 (racemic) [Example 126, (R/S)-2-(3-fluoro-4-(trifluoromethyl)phenyl)-N-((5-(3-methoxyphenyl)isoquinolin-8-yl)methyl)butanamide]",0.373
3,"COC(=O)c1cccc(-c2ccc(CNC(=O)c3nccc4ccccc34)c3cnccc23)c1 [Example 11, 8-((isoquinoline-1-carboxamido)methyl)-5-(3-(methoxycarbonyl)phenyl) isoquinolin-2-ium]",0.163

# Same assay, conditions: read-out: IC50 values for inhibition of DGAT2; membrane prep of Sf-9 cells expressing hDGAT2; 25 μM diolein, 10 μM oleoyl-CoA; room temperature; triolein by LC/MS/MS
row,SMILES,IC50 [µM]
1,"COc1cccc(-c2ccc(CNC(=O)c3cc(C4CC4)on3)c3cnccc23)c1 [Example 26, 5-cyclopropyl-N-((5-(3-methoxyphenyl)isoquinolin-8-yl)methyl)isoxazole-3-carboxamide]",2.05
2,"COc1cccc(-c2ccc(CNC(=O)C(C)(C)Oc3ccc(C(F)(F)F)cn3)c3cnccc23)c1 [Example 112, N-((5-(3-methoxyphenyl)isoquinolin-8-yl)methyl)-2-methyl-2-((5-(trifluoromethyl)pyridin-2-yl)oxy)propanamide]",1.16
3,"COC(=O)c1cccc(-c2ccc(CNC(=O)c3ccnn3C)c3cnccc23)c1 [Example 13, methyl 3-(8-((1-methyl-1H-pyrazole-5-carboxamido)methyl)isoquinolin-5-yl)benzoate]",1.23
4,"COC(=O)c1cccc(-c2ccc(CNC(=O)C3CCN(c4ccc(C(F)(F)F)cc4)CC3)c3cnccc23)c1 [Example 5, methyl 3-(8-((1-(4-(trifluoromethyl)phenyl)piperidine-4-carboxamido)methyl)isoquinolin-5-yl)benzoate]",0.1
5,"COc1cccc(-c2ccc(CNC(=O)C(F)c3ccc(C(F)(F)F)cc3)c3cnccc23)c1 (centres unmarked) [Example 124, 2-fluoro-N-((5-(3-methoxyphenyl)isoquinolin-8-yl)methyl)-2-(4-(trifluoromethyl)phenyl)acetamide]",2.33
6,"COc1cccc(-c2ccc(CNC(=O)CC(c3ccccc3)c3ccco3)c3cnccc23)c1 (centres unmarked) [Example 27, 3-(furan-2-yl)-N-((5-(3-methoxyphenyl)isoquinolin-8-yl)methyl)-3-phenylpropanamide]",6.83
7,"COc1cccc(-c2ccc(CNC(=O)c3ccc(-c4ccccc4O)cc3)c3cnccc23)c1 [Example 82, 2′-hydroxy-N-((5-(3-methoxyphenyl)isoquinolin-8-yl)methyl)-[1,1′-biphenyl]-4-carboxamide]",0.602
8,"COc1cccc(-c2ccc(CNC(=O)C(C)c3ccccc3F)c3cnccc23)c1 (centres unmarked) [Example 139, 2-(2-fluorophenyl)-N-((5-(3-methoxyphenyl)isoquinolin-8-yl)methyl)propanamide]",0.213
9,"COc1cccc(-c2ccc(CNC(=O)c3ccc4c(c3)OCCO4)c3cnccc23)c1 [Example 36, N-((5-(3-methoxyphenyl)isoquinolin-8-yl)methyl)-2,3-dihydrobenzo[b][1,4]dioxine-6-carboxamide]",3.01
10,"COc1cccc(-c2ccc(CNC(=O)c3noc(-c4ccccc4)n3)c3cnccc23)c1 [Example 72, N-((5-(3-methoxyphenyl)isoquinolin-8-yl)methyl)-5-phenyl-1,2,4-oxadiazole-3-carboxamide]",3.89
11,"COc1cccc(-c2ccc(CNC(=O)Cc3ccc(F)c(F)c3F)c3cnccc23)c1 [Example 58, N-((5-(3-methoxyphenyl)isoquinolin-8-yl)methyl)-2-(2,3,4-trifluorophenyl)acetamide]",7.29
12,"COc1cccc(-c2ccc(CNC(=O)C3CC3c3cccc(OC)c3)c3cnccc23)c1 (centres unmarked) [Example 107, 2-(3-methoxyphenyl)-N-((5-(3-methoxyphenyl)isoquinolin-8-yl)methyl)cyclopropanecarboxamide]",1.18
13,"COc1cccc(-c2ccc(CNC(=O)Nc3ccc(OC(F)(F)F)cc3)c3cnccc23)c1 [Example 151, 1-((5-(3-methoxyphenyl)isoquinolin-8-yl)methyl)-3-(4-(trifluoromethoxy)phenyl)urea]",0.938
14,"COc1cccc(-c2ccc(CNC(=O)c3cccc(-n4nc(C)cc4C)c3)c3cnccc23)c1 [Example 68, 3-(3,5-dimethyl-1H-pyrazol-1-yl)-N-((5-(3-methoxyphenyl)isoquinolin-8-yl)methyl)benzamide]",1.65
15,"COC(=O)c1cccc(-c2ccc(CNC(=O)C3CC34CCCC4)c3cnccc23)c1 (centres unmarked) [Example 10, methyl 3-(8-((spiro[2.4]heptane-1-carboxamido)methyl)isoquinolin-5-yl)benzoate]",0.162
16,"COc1cccc(-c2ccc(CNC(=O)c3ccncc3-c3ccccc3)c3cnccc23)c1 [Example 77, N-((5-(3-methoxyphenyl)isoquinolin-8-yl)methyl)-3-phenylisonicotinamide]",1.22
17,"COc1cccc(-c2ccc(CNC(=O)C(C)c3ccc(C4CCCCC4)c(Cl)c3)c3cnccc23)c1 (centres unmarked) [Example 148, 2-(3-chloro-4-cyclohexylphenyl)-N-((5-(3-methoxyphenyl)isoquinolin-8-yl)methyl)propanamide]",6.89
18,"CC(C)(C)OC(=O)N1CC=C(c2ccc(CNC(=O)Nc3cccc(Cl)c3Cl)c3cnccc23)CC1 [Example 162, tert-butyl 4-(8-((3-(2,3-dichlorophenyl)ureido)methyl)isoquinolin-5-yl)-5,6-dihydropyridine-1(2H)-carboxylate]",1.95

row,SMILES,IC50 [µM]
1,"COC(=O)c1cccc(-c2ccc(CNC(=O)c3cc(C(C)(C)C)nn3C)c3cnccc23)c1 [Example 7, methyl 3-(8-((3-(tert-butyl)-1-methyl-1H-pyrazole-5-carboxamido)methyl)isoquinolin-5-yl)benzoate]",0.111
2,"COc1cccc(-c2ccc(CNC(=O)Cc3csc(-c4ccc(F)cc4)n3)c3cnccc23)c1 [Example 64, 2-(2-(4-fluorophenyl)thiazol-4-yl)-N-((5-(3-methoxyphenyl)isoquinolin-8-yl)methyl)acetamide]",0.609
3,"COc1cccc(-c2ccc(CNC(=O)CCc3cnn(C)c3)c3cnccc23)c1 [Example 94, N-((5-(3-methoxyphenyl)isoquinolin-8-yl)methyl)-3-(1-methyl-1H-pyrazol-4-yl)propanamide]",0.305
4,"COc1cccc(-c2ccc(CNC(=O)C(F)(F)c3ccc(Br)cn3)c3cnccc23)c1 [Example 116, 2-(5-bromopyridin-2-yl)-2,2-difluoro-N-((5-(3-methoxyphenyl)isoquinolin-8-yl)methyl)acetamide]",8.13
5,"COc1cccc(-c2ccc(CNC(=O)c3cc(Br)cnc3F)c3cnccc23)c1 [Example 131, 5-bromo-2-fluoro-N-((5-(3-methoxyphenyl)isoquinolin-8-yl)methyl)nicotinamide]",0.401
6,"N#Cc1cccc(-c2ccc(CNC(=O)[C@@H]3C[C@H]3c3ccccc3)c3cnccc23)c1 (relative stereo) [Example 16, (trans)-N-((5-(3-cyanophenyl)isoquinolin-8-yl)methyl)-2-phenylcyclopropanecarboxamide]",3.47
7,"COc1cccc(-c2ccc(CNC(=O)c3ccc(-c4ccon4)cc3)c3cnccc23)c1 [Example 76, 4-(isoxazol-3-yl)-N-((5-(3-methoxyphenyl)isoquinolin-8-yl)methyl)benzamide]",4.46
8,"COc1cccc(-c2ccc(CNC(=O)C(C)c3ccc(C#N)cc3)c3cnccc23)c1 (centres unmarked) [Example 136, 2-(4-cyanophenyl)-N-((5-(3-methoxyphenyl)isoquinolin-8-yl)methyl)propanamide]",0.256
9,"COc1cccc(-c2ccc(CNC(=O)C(C)c3ccccc3)c3cnccc23)c1 (centres unmarked) [Example 138, N-((5-(3-methoxyphenyl)isoquinolin-8-yl)methyl)-2-phenylpropanamide]",0.298
10,"CC(C)Oc1cccc(-c2ccc(CNC(=O)C3CC3c3ccccc3)c3cnccc23)c1 (centres unmarked) [Example 19, N-((5-(3-isopropoxyphenyl)isoquinolin-8-yl)methyl)-2-phenylcyclopropanecarboxamide]",0.888
11,"CCCc1cc(C(=O)NCc2ccc(-c3cccc(OC)c3)c3ccncc23)n(C)n1 [Example 44, N-((5-(3-methoxyphenyl)isoquinolin-8-yl)methyl)-1-methyl-3-propyl-1H-pyrazole-5-carboxamide]",1.43
12,"COc1cccc(-c2ccc(CNC(=O)Nc3cccc(-c4ccccc4)c3)c3cnccc23)c1 [Example 157, 1-([1,1′-biphenyl]-3-yl)-3-((5(3-methoxyphenyl)isoquinolin-8-yl)methyl)urea]",0.116
13,"COc1cccc(-c2ccc(CNC(=O)c3coc(-c4ccccc4)n3)c3cnccc23)c1 [Example 70, N-((5-(3-methoxyphenyl)isoquinolin-8-yl)methyl)-2-phenyloxazole-4-carboxamide]",2.33
14,"O=C(NCc1ccc(C2=CCNC2)c2ccncc12)Nc1cccc(Cl)c1Cl [Example 167, 1-(2,3-dichlorophenyl)-3-((5-(2,5-dihydro-1H-pyrrol-3-yl)isoquinolin-8-yl)methyl)urea]",4.42
15,"CCOC(=O)c1cccc(-c2ccc(CNC(=O)C3CC3c3ccccc3)c3cnccc23)c1 (centres unmarked) [Example 14, ethyl 3-(8-((2-phenylcyclopropanecarboxamido)methyl)isoquinolin-5-yl)benzoate]",0.071
16,"COc1cccc(-c2ccc(CNC(=O)Cc3cccc(F)c3)c3cnccc23)c1 [Example 52, 2-(3-fluorophenyl)-N-((5-(3-methoxyphenyl)isoquinolin-8-yl)methyl)acetamide]",3.71
17,"COc1cccc(-c2ccc(CNC(=O)c3cn(Cc4ccccc4)nn3)c3cnccc23)c1 [Example 113, 1-benzyl-N-((5-(3-methoxyphenyl)isoquinolin-8-yl)methyl)-1H-1,2,3-triazole-4-carboxamide]",5.89
